In EP0717746B1, “PHOSPHINIC ACID DERIVATIVES WITH ANTI-HYPER GLYCEMIC AND/OR ANTI-OBESITY ACTIVITY” (SMITHKLINE BEECHAM PLC, priority 1993, dated 1995):

Target: T1, human β3-adrenoceptor (Homo sapiens, UniProt P13945)
T1 construct: expressed in transfected cells; host or cells: CHO cells (stably transfected subclones); plasma membranes prepared
Experiment: β3-Adrenoceptor-mediated adenylyl cyclase activity in CHO cell plasma membranes
Type: biochemical
Details: concentration of agonist producing 50 % activation of adenylyl cyclase; CHO cell plasma membranes transfected with the human β3-adrenoceptor; cAMP produced over 20 minutes
Procedure: Subclones of CHO cells were stably transfected with each of the human β1, β2 and β3-adrenoceptors^1. Cells were then disrupted by immersion in ice-cold lysis buffer (10 mM TRIS, 2mM EDTA , pH 7.4) containing protease inhibitors leupeptin and benzamidine (5 µg / ml) and soyabean trypsin inhibitor (10 µg / ml). Membranes were prepared by the method of Bouvier et. al.^2 and stored in 1 ml aliquots in liquid N2 for future use.
Adenylyl cyclase activity was assayed by the method of Kirkham et. al.^3 by the addition of 40 µl (70 -80 µg protein) to the incubation medium of the above CHO cell plasma membranes transfected with the human β3-adrenoceptor . cAMP produced over 20 minutes was separated from ATP by the method of Salomon et al.^4. Agonist EC50 values and intrinsic activities were expressed as the concentration of agonist producing 50 % activation of adenylyl cyclase and the maximum response produced by each agonist relative to that produced by (-) isoprenaline respectively.

T1 sequence (P13945 whole entry): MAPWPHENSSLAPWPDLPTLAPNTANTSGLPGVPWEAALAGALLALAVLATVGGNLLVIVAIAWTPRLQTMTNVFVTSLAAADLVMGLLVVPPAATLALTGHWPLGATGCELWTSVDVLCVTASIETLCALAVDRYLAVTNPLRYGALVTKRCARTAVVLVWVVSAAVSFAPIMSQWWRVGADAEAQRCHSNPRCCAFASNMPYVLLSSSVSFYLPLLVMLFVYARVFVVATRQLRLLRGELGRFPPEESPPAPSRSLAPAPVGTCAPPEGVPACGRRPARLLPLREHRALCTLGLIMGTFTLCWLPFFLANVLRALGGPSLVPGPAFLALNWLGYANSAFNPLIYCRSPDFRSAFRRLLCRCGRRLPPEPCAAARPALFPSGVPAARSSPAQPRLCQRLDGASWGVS

SMILES	EC50 [nM]
CCOP(=O)(CC)COc1ccc(CC(C)NC[C@H](O)c2ccc(O)c(O)c2)cc1 (some centres unmarked) [Example 2, (RR RS) Ethyl 4-[2-[2-(3,4-dihydroxyphenyl)-2-hydroxyethylamino]propyl]phenoxymethylethylphosphinate]	460
CC(Cc1ccc(OCP(=O)(O)c2ccccc2)cc1)NC[C@H](O)c1ccc(O)c(O)c1 (some centres unmarked) [Example 3, (RR RS) 4-[2-[2-(3,4-Dihydroxyphenyl)-2-hydroxyethylamino]propyl]phenoxymethyl phenylphosphinic acid.]	540
